# Measurements: patent US20250108026A1, “DROXIDOPA COMPOSITIONS AND METHODS” (XENAMED CORP., priority 2016, published 2025)
# What was measured:
# Format in all cases: physicochemical
# [1] = Stability of saturated droxidopa solutions at room temperature (UPLC); settings: for Stability of saturated droxidopa in solution: room temperature over 24 days; for Total degradation, 7 day Exposure / Total degradation, 24 day Exposure: saturated solution
# Procedure: Saturated solutions of droxidopa were prepared in 3 diluents at different pH and stored at room temperature for up to 24 days in sealed containers. All solutions were prepared with an excess of droxidopa by combining 10 mg droxidopa per ml of diluent. Exposed samples were filtered and degradation as a percent of initial droxidopa amount was determined by ultra-performance liquid chromatography (UPLC) on a Waters ACQUITY UPLC with a photodiode array (PDA) detector using a Waters ACQUITY HSS PFP 1.8 μm 2.1×100 mm column. Run conditions for the analyses were as follows: • Mobile phase A: 50 mM ammonium formate pH 3.0 • Mobile phase B: Acetonitrile • Detection wavelength: 279 nm • Flow: 0.5 ml/min • Column temperature: 30 C • Injection volume: 1 μl • Gradient (linear transitions) are shown in Table 12B: […]
# [2] = Solid state stability of droxidopa with pH modifiers under accelerated conditions 70° C./75% RH
# Procedure: Droxidopa is stable in acidic solution, but degrades in neutral or alkaline conditions. […] When citric acid was present with the drug in solid state, e.g. powder or uncoated granules, droxidopa became unstable under accelerated conditions 70° C./75% RH. When these droxidopa granules/pellets were coated with a protective layer, and blended with citric acid, the drug degradation was reduced. Furthermore, a pH modifier monosodium citrate was used instead of citric acid and blended with droxidopa granules. Droxidopa was stable for 7 days under accelerated conditions 70° C./75% RH. […] Thus, salt based pH modifiers can be used to improve the stability of the droxidopa.
# [3] = Stability of droxidopa dissolved in diluents of different pH (0.5 mg/ml, room temperature, UPLC); settings: for Total degradation, 24-hour Exposure / Total degradation, 48-hour Exposure: room temperature, 0.5 mg/ml
# Procedure: Droxidopa was dissolved in 5 diluents at different pH and stored at room temperature for 24 or 48 hours in sealed glass containers. All solutions were prepared at a nominal concentration of 0.5 mg/ml. Percent degradation was determined by ultra-performance liquid chromatography (UPLC) on a Waters ACQUITY UPLC with a photodiode array (PDA) detector using a Waters ACQUITY BEH C18 1.7 um 2.1×50 mm column. Run conditions for the analyses were as follows: • Mobile phase A: 50 mM sodium phosphate pH 3.0 • Mobile phase B: Acetonitrile • Detection wavelength: 279 nm • Flow: 0.5 ml/min • Column temperature: 30 C • Injection volume: 2 μl • Gradient (linear transitions) are shown in Table 12A: Identification of the known components droxidopa and dihydroxybenzaldehyde was confirmed through retention time and spectral match against pure materials of known identity. Degradation results were quantified as a percent area of degradation peaks versus total area of all degradation/droxidopa peaks. Results for pH 10.0 and pH 12.0 samples were estimated at >90% due to a significant number of peaks present near the retention time of droxidopa.
# [4] = Droxidopa solubility at room temperature at different pH
# [5] = 16 mmol citric acid, room temperature
# [6] = 16 mmol disodium citrate combined with 16 mmol citric acid to achieve pH 4.0, room temperature
# [7] = pH 3, 50 mM NaH2PO4 adjusted to pH 3.0 with Phosphoric acid
# [8] = pH 7, 50 mM NaH2PO4 adjusted to pH 7.0 with 1N Sodium hydroxide
structure (smiles),measurement,setting,value
"N[C@H](C(=O)O)[C@H](O)c1ccc(O)c(O)c1 [droxidopa, (−)-threo-3-(3,4-Dihydroxyphenyl)-L-serine]",Stability of saturated droxidopa in solution,[1]; citrate buffer (pH 4.0),stable
same,Stability of saturated droxidopa in solution,[1]; citric acid solution (pH 2.5),stable
same,"Total degradation, 7 day Exposure",[1]; [5],0.0%
same,"Total degradation, 24 day Exposure",[1]; [5],0.1%
same,"Total degradation, 7 day Exposure",[1]; [6],0.0%
same,"Total degradation, 24 day Exposure",[1]; [6],0.1%
same,"Total degradation, 7 day Exposure","[1]; Deionized water, room temperature",0.1%
same,Solid state stability,[2]; citric acid present with the drug in solid state (powder or uncoated granules),unstable
same,Solid state stability,"[2]; droxidopa granules blended with monosodium citrate, 7 days",stable
same,Drug degradation in solid state,[2]; granules/pellets coated with a protective layer and blended with citric acid,reduced
same,Stability in solution,[3]; acidic solution,stable
same,Stability in solution,[3]; neutral or alkaline conditions,degrades
same,"Total degradation, 24-hour Exposure","[3]; pH 1.2, 0.1N HCl",<0.05%
same,"Total degradation, 48-hour Exposure","[3]; pH 1.2, 0.1N HCl",<0.05%
same,"Total degradation, 24-hour Exposure",[3]; [7],<0.05%
same,"Total degradation, 48-hour Exposure",[3]; [7],<0.05%
same,"Total degradation, 24-hour Exposure",[3]; [8],0.39%
same,"Total degradation, 48-hour Exposure",[3]; [8],1.23%
same,"Total degradation, 24-hour Exposure","[3]; pH 10, 25 mM HCO2NH4 adjusted to pH 10.0 with NH4OH, estimated",>90%
same,"Total degradation, 24-hour Exposure","[3]; pH 12, 0.01N NaOH, estimated",>90%
same,solubility,"[4]; solution of pH 1.2 (composition not stated), pH 1.2, simulated gastric fluid",15500 µg/mL
same,solubility,"[4]; solution of pH 3.0 (composition not stated), pH 3, aqueous buffer",2620 µg/mL
same,solubility,"[4]; solution of pH 4.5 (composition not stated), pH 4.5, aqueous buffer",2350 µg/mL
same,solubility,"[4]; solution of pH 5.5 (composition not stated), pH 5.5, aqueous buffer",2300 µg/mL
same,solubility,"[4]; solution of pH 6.8 (composition not stated), pH 6.8, aqueous buffer",2470 µg/mL
